Source: patent publication US20100004194A1, “USE OF ISOMALTULOSE IN FOOD PRODUCTS HAVING A REGENERATIVE EFFECT” (priority 2006, published 2010)
Entries after “also recorded” stand apart in the source; their conditions may differ.

Tests used:
[1] = Second meal effect crossover study: respiratory quotient over a test period including two meals and 30-min treadmill exertion; format: in vivo, human; details: 20 subjects
Procedure: The test was a crossover study with 20 subjects. In each subject, the effect of isomaltulose vs. sucrose/glucose syrup was tested.
The test period comprised two meals into which the test substances were integrated: on the one hand a breakfast, which consisted of a drink (250 ml, 10% carbohydrates=25 g of test substance) and biscuits (approx. 140 g, also with 25 g of test substance), and on the other hand a lunch consisting of mini pizzas, an apple and a refreshment drink. The carbohydrate quantity, consumed per portion of shortpastry, of wheat starch of the flour was, at about 50-60 g carbohydrates, at the same level in all biscuit variants. Each test period comprised two postprandial phases.
The respiratory quotient was determined first at rest, then during the subsequent 30-min exertion at moderate intensity (treadmill uphill protocol 4 km/h 5% gradient), at the end of the 30-minute post-exertion phase and up to 4 hours after consumption of the second meal (the lunch).

[2] = 3-armed crossover study: respiratory quotient before, during and after physical exertion (bicycle ergometer, Wingate test) with test drinks; format: in vivo, human; details: 21 male endurance athletes
Procedure: The effect of isomaltulose (Palatinose™) on the regulation of the metabolism before, during and after physical exertion was examined and compared with the consumption of maltodextrin or a placebo which has a non-glycaemic effect and is of equivalent sweetness.
The test was carried out as a 3-armed crossover study on 21 subjects. In each subject, the effect of a non-glycaemic drink (placebo=sweetened mineral water) was tested versus a drink containing maltodextrin versus isomaltulose.
The subjects were male endurance athletes with several years' training experience (VO2max>55 ml/kg KG) aged between 23 and 50.
In step ergometry on a bicycle (100 watts at the start; increased by 50 watts/3 min), performance was first determined in the range of from 70-75% of the maximum oxygen uptake. After a sufficient regeneration phase of at least 5 days, the first testing was carried out in randomised order. The testing was carried out in the morning, at the same time in each case, 3-4 hours after a standardised breakfast.
Standardised endurance exertion was first carried out on a bicycle ergometer at 70-75% of the VO2max over 90 min. […] The respiratory quotient (RQ) was determined at the moments −30, −15, 0, 15, 30, 45, 60, 75, 90 min before or during the exertion, immediately after completion of the Wingate test and also 3, 15, 30, 60 and 120 min after end of exertion. […]

OC[C@H]1O[C@H](OC[C@H]2OC(O)(CO)[C@@H](O)[C@@H]2O)[C@H](O)[C@@H](O)[C@@H]1O (stereo partly shown) [isomaltulose]
RQ after consumption of the breakfast ([1]; breakfast drink with 25 g plus biscuits with 25 g test substance, versus sucrose/glucose syrup breakfast): lower than after the sucrose/glucose syrup breakfast | degree by which the RQ was lower after consumption of a second meal (lunch) ([1]; up to 4 hours after the lunch, versus sucrose/glucose syrup): maintained | respiratory quotient (RQ) after the physical exertion versus immediately prior to the exertion (percentage change) ([2]; 250 ml drinks with 25 g carbohydrate 30 min prior, at start, after 45 min and after Wingate test (2x250 ml), 90 min at 70-75% VO2max): substantially equal to or even lower; also recorded: substantially equal | RQ throughout the test phase ([2]; isomaltulose drink compared with maltodextrin drink or placebo): lower RQ
